From patent publication US7973159B2, “Non-basic melanin concentrating hormone receptor-1 antagonists” (Bristol-Myers Squibb Company, priority 2007, dated 2011)

Molecular target: T1, mutated (E4Q, A5T) hMCHR1 receptor (Homo sapiens, UniProt Q99705, A5T/E4Q)
T1 construct: expressed in transfected cells
Experiment: Radioligand binding assay for assessment of MCHR1 activity
Conditions: membranes from stably transfected HEK-293 cells; competition with [Phe13,[125I]Tyr19]-MCH, 90 min
Experimental: Radioligand Binding Assay for Assessment of MCHR1 Activity
Membranes from stably transfected HEK-293 cells expressing a mutated (E4Q, A5T) hMCHR1 receptor were prepared by dounce homogenization and differential centrifugation. Binding experiments were carried out with 0.5-1.0 ug of membrane protein incubated in a total of 0.2 ml in 25 mM HEPES (pH 7.4) with 10 mM MgCl2, 2 mM EGTA, and 0.1% BSA (Binding Buffer) for 90 min. For competition binding assays, reactions were carried out in the presence of with 0.06-0.1 nM [Phe^13, [^125I]Tyr^19]-MCH and increasing concentrations of unlabeled test molecules. Reactions were terminated by rapid vacuum filtration over 96 well-GFC UNIFILTER® plates pre-coated with 0.075 ml binding buffer containing 1% BSA, and washed 3 times with 0.4 ml of Phospho-buffered Saline (pH 7.4) containing 0.01% TX-100. Filters were dried, 0.05 ml microscint 20 was added to each well and radioactivity was subsequently quantified by scintillation counting on a TOPCOUNT® microplate scintillation counter (Packard). Inhibitory constants were determined by nonlinear least squares analysis using a four parameter logistic equation.

T1 sequence (Q99705 whole entry E4Q/A5T): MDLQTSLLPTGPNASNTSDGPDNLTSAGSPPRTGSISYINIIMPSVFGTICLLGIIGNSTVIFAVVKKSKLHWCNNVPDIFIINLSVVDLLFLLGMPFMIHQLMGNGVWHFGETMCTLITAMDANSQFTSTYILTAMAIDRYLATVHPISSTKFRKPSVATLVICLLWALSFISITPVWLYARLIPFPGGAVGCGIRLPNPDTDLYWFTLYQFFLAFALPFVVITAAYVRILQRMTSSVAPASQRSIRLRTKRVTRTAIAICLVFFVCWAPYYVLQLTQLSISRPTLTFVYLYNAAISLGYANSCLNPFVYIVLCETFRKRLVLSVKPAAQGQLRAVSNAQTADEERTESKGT

| SMILES | Ki |
| --- | --- |
| COc1cc(-n2nnc3cc(-c4ccc(Cl)cc4)sc3c2=O)ccc1OCC(C)(C)O [Example 1, 6-(4-Chlorophenyl)-3-(4-(2-hydroxy-2-methylpropoxy)-3-methoxyphenyl)-thieno[3,2-d][1,2,3]triazin-4(3H)-one] | 3 nM |
| COc1cc(-n2nnc3cc(-c4ccc(Cl)cc4)sc3c2=O)ccc1OCC(C)=O [Example 2, 6-(4-Chlorophenyl)-3-(3-methoxy-4-(2-oxopropoxy)phenyl)thieno[3,2-d][1,2,3]triazin-4(3H)-one] | 5 nM |
| COc1cc(-n2nnc3cc(-c4ccc(Cl)cc4)sc3c2=O)ccc1OCC(C)O (stereo not drawn) [Example 3, 6-(4-Chlorophenyl)-3-(4-(2-hydroxypropoxy)-3-methoxyphenyl)thieno[3,2-d][1,2,3]triazin-4(3H)-one] | 7 nM |
| COc1cc(-n2nnc3cc(-c4ccc(Cl)cc4)sc3c2=O)ccc1OCCO [Example 4, 6-(4-Chlorophenyl)-3-(4-(2-hydroxyethoxy)-3-methoxyphenyl)thieno[3,2-d][1,2,3]triazin-4(3H)-one] | 5 nM |
| COc1cc(-n2nnc3cc(-c4ccc(Cl)cc4)sc3c2=O)ccc1OCC(O)C1CC1 (stereo not drawn) [Example 5, 6-(4-Chlorophenyl)-3-(4-(2-cyclopropyl-2-hydroxyethoxy)-3-methoxyphenyl)thieno[3,2-d][1,2,3]triazin-4(3H)-one] | 10 nM |
| COc1cc(-n2nnc3cc(-c4ccc(Cl)cc4)sc3c2=O)ccc1OC[C@H]1OC(C)(C)O[C@@H]1C [Example 6] | 19 nM |
| COc1cc(-n2nnc3cc(-c4ccc(Cl)cc4)sc3c2=O)ccc1OC[C@@H](O)[C@@H](C)O [Example 7, 6-(4-Chlorophenyl)-3-(4-((2R,3R)-2,3-dihydroxybutoxy)-3-methoxyphenyl)thieno[3,2-d][1,2,3]triazin-4(3H)-one] | 5 nM |
| COc1cc(-n2nnc3cc(-c4ccc(Cl)cc4)sc3c2=O)ccc1OCC(O)C(F)(F)F (stereo not drawn) [Example 8, 6-(4-Chlorophenyl)-3-(3-methoxy-4-(3,3,3-trifluoro-2-hydroxypropoxy)phenyl)thieno[3,2-d][1,2,3]triazin-4(3H)-one] | 8 nM |
| COc1cc(-n2ncc3cc(-c4ccc(Cl)cc4)sc3c2=O)ccc1OCC(C)(C)O [Example 9, 2-(4-Chlorophenyl)-6-(4-(2-hydroxy-2-methylpropoxy)-3-methoxyphenyl)-thieno[2,3-d]pyridazin-7(6H)-one] | 4 nM |
